Patent US12590071B2, “Hydrazone derivative in which terminal amine group is substituted with aryl group or heteroaryl group, and use thereof” (KOREA INSTITUTE OF SCIENCE AND TECHNOLOGY, priority 2018, dated 2026)

Assays:
[1] = test system: Tau-BiFC cells; assay: Cytotoxicity (cell survival rate) in tau-BiFC cells; conditions: group treated with Forskolin alone = 100%
Method in brief: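 Tau-BiFC cells co-treated 48 h with Forskolin ([…]) and compound at 0.03–30 μM. BiFC fluorescence quantified by imaging, IC50 by nonlinear regression; cytotoxicity as Hoechst-stained nuclei count relative to Forskolin-only wells (100% survival).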

[2] = Liver microsomal stability (dog); format: in vitro ADME; conditions: amount of substrate remaining; 1 μM, 0.25 mg/mL microsomes, 37° C., 30 minutes
Method in brief: (§1)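 Compound at 1 μM with microsomes (0.25 mg/mL each species) in 0.1 M phosphate buffer pH 7.4, preincubated 5 min at 37 °C, then 30 min at 37 °C after NADPH-generating system addition. Quenched with acetonitrile plus internal standard; remaining substrate measured by LC-MS/MS.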

[3] = Liver microsomal stability (rat); format: in vitro ADME; conditions: amount of substrate remaining; 1 μM, 0.25 mg/mL microsomes, 37° C., 30 minutes
Method in brief: as §1

[4] = Pharmacokinetics in SD rat (plasma PK parameters); format: in vivo; conditions: for AUCall / clearance / half-life / Cmax / Tmax: SD rat plasma; for F: SD rat, PO 10 mg/kg versus IV
Procedure: Specifically, an SD rat of 7 to 8 weeks of age (Core Tech, Hana Trading Co., Ltd.) having a body weight of about 250 g to 300 g was purchased, and was managed in a simple breeding room for small animals set to a temperature of 22° C.±2° C., a relative humidity of 50%±5%, a lighting time of 12 hours (light up at 8:00 A.M., turn off at 8:00 P.M.), and an illuminance of 150 lux to 300 lux. During the entire test period, feed was freely provided, RO water was freely provided, and fasting was performed for 16 hours before the oral administration of a drug. After preparing a drug under the conditions shown in Table 5 below, the drug was intravenously injected (IV) or orally administered (PO). 500 µL of transfused blood was collected in a tube containing sodium heparin and centrifuged at 2° C. to 8° C. at 8,000 rpm for 6 minutes to obtain plasma from the blood. The obtained plasma was added to 180 μL of acetonitrile containing internal standard materials, vortexed, and then centrifuged at 15,000 rpm at 4° C. for 5 minutes to obtain a supernatant. The obtained supernatant was analyzed by LC-MS/MS.
Specific PK parameters were acquired using the Phoenix WinNonlin version 6.4 program (Phersight, USA) and wore calculated with a non-compartmental analysis model.

Structure (SMILES) | Cell survival rate (% @ 10 μM) [1] [%] | liver microsomal stability, Dog (%) [2] [%] | liver microsomal stability, Rat (%) [3] [%] | AUCall ([4]; IV 1 mg/kg) | clearance ([4]; IV 1 mg/kg) [mL/min/kg] | half-life ([4]; IV 1 mg/kg) [h] | AUCall ([4]; PO 10 mg/kg) | Cmax ([4]; PO 10 mg/kg) [ng/mL] | Tmax ([4]; PO 10 mg/kg) [h] | half-life ([4]; PO 10 mg/kg) [h] | F [4] [%] | Cmax ([4]; IV 1 mg/kg) [ng/mL] | Tmax ([4]; IV 1 mg/kg) [h] | AUCall ([4]; IV 2 mg/kg) | Cmax ([4]; IV 2 mg/kg) [ng/mL] | Tmax ([4]; IV 2 mg/kg) [h] | clearance ([4]; IV 2 mg/kg) [mL/min/kg] | half-life ([4]; IV 2 mg/kg) [h]
N#CC(C#N)=NNc1ccc(-c2ncccn2)cc1 [Compound 1, (4-(pyrimidin-2-yl)phenyl)carbonohydrazonoyl dicyanide] | 74 | 5.7 | 28.3 | 7260.0 ± 580.1 hr, ng/mL | 11.5 ± 0.9 | 1.1 ± 1 | 4652.8 ± 1158.9 hr, ng/mL | 1840 ± 609 | 1.7 ± 2.9 | 1.6 ± 1.6 | 32 |  |  |  |  |  |  | 
N#CC(C#N)=NNc1ccc(-c2ncc(F)cn2)cc1 [Compound 2, (4-(5-fluoropyrimidin-2-yl)phenyl)carbonohydrazonoyl dicyanide] | 59 | 92.1 | 97.2 | 7335.6 ± 1794.1 hr, ng/mL | 2.4 ± 0.7 | 1.2 ± 0.3 | 19890.5 ± 6049.3 hr, ng/mL |  |  |  | 27.1 | 4280 ± 1390 | 5.5 ± 1 |  |  |  |  | 
Cc1ncc(-c2ccc(NN=C(C#N)C#N)cc2)s1 [Compound 11, (4-(2-methylthiazol-5-yl)phenyl)carbonohydrazonoyl dicyanide] | 146.2 | 79.6 | 49.6 |  |  |  | 19169.2 hr, ng/mL | 6900 | 0.25 | 2.96 | 32.5 |  |  | 11800.37 hr, ng/mL | 10700 | 0.08 | 2.84 | 1.05
N#CC(C#N)=NNc1ccc(-c2cnc3ccnn3c2)cc1 [Compound 50, (4-(pyrazolo[1,5-a]pyrimidin-6-yl)phenyl)carbonohydrazonoyl dicyanide] | 76 | 88.9 | 85.7 | 8149.7 ± 1421.0 hr, ng/mL | 2 ± 0.3 | 1.9 ± 0.3 | 6726.6 ± 2700.2 hr, ng/mL | 1330 ± 788 | 5 ± 2 |  | 8.3 |  |  |  |  |  |  | 
Cc1cnc(C(=O)Nc2nc3ccc(NN=C(C#N)C#N)cc3s2)cn1 [Compound 93, (2-(5-methylpyrazine-2-carboxamido)benzo[d]thiazol-6-yl)carbonohydrazonoyl dicyanide] | 129.2 | 60.4 | 63.3 | 6059.4 ± 548.0 hr, ng/mL | 2.7 ± 0.3 | 1.7 ± 0.1 | 13884.8 ± 3420.9 hr, ng/mL | 2570 ± 423 | 5 ± 1.2 |  | 22.9 |  |  |  |  |  |  | 
